Results taken from patent publication US8124605B2, “Compositions and methods for modulating a kinase cascade” (Kinex Pharmaceuticals, LLC, priority 2007, dated 2012).

Experiments:
Format in all cases: cell-based
SYF/c-Src527F cell line = assay: Cell proliferation assay (MTT assay), GI50; conditions: Mus musculus, 72 h, 3 days incubation
Procedure: (§1) The GI50s for several of the compounds of the invention are assayed as described herein.
(§2) Cell line and culture media—the human colon tumor cell line HT-29 was obtained from Dr. Irwin Gelman (Roswell Park Cancer Institute, Buffalo, N.Y.) and maintained in McCoy's 5A medium supplemented with 2% fetal bovine serum and penicillin-streptomycin. SYF/c-Src527F cell line was also obtained from Dr. Irwin Gelman and maintained in Dulbecco's modified Eagle's medium (DMEM) supplemented with 2% bovine serum and penicillin-streptomycin. Both cell lines were incubated in an atmosphere containing 5% CO2 at 37° C.
(§3) Cell proliferation assay (MTT assay)-HT-29 (7,000 cells) and SYF/c-Src527F (4,000 cells) cells were plated in 120 μl of culture medium per well of 96-well plate. Cells were incubated overnight before drug treatment. Test compounds were diluted in culture medium in a separate 96-well plate to yield 10× concentrations of test dose (50 nM, 500 nM, 5 μM, 50 μM, and 500 μM). 13.3 μl of the 10× compound was added to each well of cells to achieve the final test concentrations (5 nM, 50 nM, 500 nM, 5 μM and 50 μM). After 3 days incubation, 10 μl of MTT (Thiazolyl Blue Tetrazolium Bromide, 5 mg/ml in PBS) was added to each well and incubate for 3 hours at 37° C. After removal of culture medium, 100 μl of isopropanol containing 40 mM HCl was added to each well and incubate for 10 minutes on a shaker to dissolve the MTT formazan. Optical density (OD) at 570 nm was then measured using microplate reader and cell growth inhibition (percentage of growth) by each concentration of drug was calculated as: % growth=100×[(T−T0)/(C−T0)] (T: OD of the test well exposure to test drug; C: OD of the control well without drug treatment; T0: OD at time zero). Growth inhibition curves and GI50 were determined using GraphPad Prism 5 statistical software.

[1] = test system: human colon tumor cell line HT-29; assay: Cell proliferation assay (MTT assay), GI50; conditions: HT-29, 72 h, 3 days incubation, read-out: GI50 HT29
Procedure: as §1, §2, §3

JAK3 = target: T1, JAK3 (Homo sapiens, UniProt P52333); assay: JAK phosphorylation/activation by flow cytometry, pSTAT5 staining in IL-4 stimulated U-937 cells; conditions: drug 30 min, then IL-4
T1 construct: U-937 cells, histiocytic lymphoma cell line; endogenous in cells; host or cells: U-937 (ATCC CRL-1593.2)
T1 sequence (P52333 1-1124): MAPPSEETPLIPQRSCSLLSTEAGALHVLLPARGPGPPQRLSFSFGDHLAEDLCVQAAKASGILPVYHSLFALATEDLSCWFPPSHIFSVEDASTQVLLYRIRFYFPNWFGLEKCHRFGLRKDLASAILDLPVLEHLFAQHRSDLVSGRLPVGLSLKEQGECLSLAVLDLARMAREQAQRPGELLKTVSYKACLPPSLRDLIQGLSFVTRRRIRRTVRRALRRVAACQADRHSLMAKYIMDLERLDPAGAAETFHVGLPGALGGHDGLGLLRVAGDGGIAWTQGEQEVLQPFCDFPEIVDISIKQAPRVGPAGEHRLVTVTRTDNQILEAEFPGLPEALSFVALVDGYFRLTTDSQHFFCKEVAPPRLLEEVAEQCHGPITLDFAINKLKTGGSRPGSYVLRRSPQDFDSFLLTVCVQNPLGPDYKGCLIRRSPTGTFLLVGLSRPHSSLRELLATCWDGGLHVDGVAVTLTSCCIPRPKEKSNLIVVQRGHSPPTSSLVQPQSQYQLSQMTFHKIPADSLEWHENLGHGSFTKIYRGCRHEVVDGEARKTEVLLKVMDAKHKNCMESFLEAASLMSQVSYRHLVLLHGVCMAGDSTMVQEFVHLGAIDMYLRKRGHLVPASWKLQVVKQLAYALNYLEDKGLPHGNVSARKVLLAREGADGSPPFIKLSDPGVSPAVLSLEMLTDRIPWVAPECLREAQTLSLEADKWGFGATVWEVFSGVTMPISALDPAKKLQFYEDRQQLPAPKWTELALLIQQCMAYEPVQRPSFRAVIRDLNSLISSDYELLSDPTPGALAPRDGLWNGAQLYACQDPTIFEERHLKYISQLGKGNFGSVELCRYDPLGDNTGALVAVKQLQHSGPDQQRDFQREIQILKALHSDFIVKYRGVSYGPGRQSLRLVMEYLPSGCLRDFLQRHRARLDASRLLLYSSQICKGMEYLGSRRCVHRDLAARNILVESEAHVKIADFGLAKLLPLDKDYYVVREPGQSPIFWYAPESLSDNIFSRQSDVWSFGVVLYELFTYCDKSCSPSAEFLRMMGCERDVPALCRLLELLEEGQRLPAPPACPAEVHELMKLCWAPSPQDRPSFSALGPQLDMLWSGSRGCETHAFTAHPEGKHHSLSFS
Procedure: (§4) The protocol used to analyze the effect of compounds of the invention on JAK phosphorylation/activation is adapted from: Krutzik and Nolan, Cytometry Part A 55A:61-70 (2003).
(§5) Briefly, U-937 cells, histiocytic lymphoma cell line; ATCC No. CRL-1593.2, were treated with compounds of the invention or commercial JAK inhibitors. Cells were then stimulated with IL-4, to engage the JAK/STAT signaling pathway. Cells were fixed with formaldehyde to “freeze” the phosphorylation states of intracellular proteins. Cells were next permeabilized, and stained with mAbs directed against the phosphorylated STAT (pSTAT) proteins. The positive shift in fluorescence due to pSTAT staining serves as a surrogate to JAK phosphorylation/activation: no flow cytometric mAbs specific to JAKs exist, so the proximal downstream signaling event, STAT phosphorylation, is measured. A decrease in fluorescence, due to drug incubation prior to IL-4 stimulation, is an indirect indication of JAK inhibition. The following antibodies were used: apSTAT5-PE: monoclonal antibody to the intracellular STAT5a protein phosphorylated at Tyrosine 694; conjugated to the fluorochrome phycoerythrin (PE); BD No. 612567 and apSTAT6-Alex647: monoclonal antibody to the intracellular STAT6 protein phosphorylated at Tyrosine 641; conjugated to the fluorochrome Alexa Fluor 647; BD No. 612601. The detailed protocol is described below:
(§6) Resuspend U-937 cells @ 8×10^5 cells/mL in complete culture medium (RPMI-1640/10% FBS).
(§7) Add 0.5 mL cell suspension to each well of 24-well tissue culture plate.
(§8) Add drug treatment (compounds, controls) for 30 min @ 37° C., 5% CO2.
(§9) Add cytokine/growth factor to stimulate; 15-30 min @ 37° C. (1 μL/0.5 mL cell suspension; IL-4, IL-2, IL-15=20 ng/mL)
(§10) Transfer cells to 5 mL Flow tubes.
(§11) Add 16% Formaldehyde directly to cell culture to obtain final concentration of 1.5% formaldehyde. (47 μL formaldehyde+0.5 mL cell culture)
(§12) Incubate cells in fixative for 15 min @ 37° C., 5% CO2.
(§13) Add 3 mL cold “Staining Media” (PBS/1% BSA) to each tube; centrifuge cells @ 1100 RPM, 3 min. Discard supernatant.
(§14) Resuspend cells with vigorous vortexing in 200 μL ice-cold Methanol.
(§15) Incubate cells on ice, 30 min.
(§16) Wash cells twice in 2 mL “Staining Medium” (centrifuge cells @ 1100 RPM, 3 min). Discard supernatant.
(§17) Add 8 μL of fluorophore-conjugated, phosphoprotein-specific mAbs to cells. Incubate cells at RT, 60 min, in the dark.
(§18) Wash cells with 4 mL Staining Media. Centrifuge cells @ 1100 RPM, 3 min. Discard supernatant.
(§19) Resuspend cells in 350 μL Staining Media.
(§20) Acquire cellular events on BD FACSCalibur cytometer.

JAK1 = target: T2, JAK1 (Homo sapiens, UniProt P23458); assay: JAK phosphorylation/activation by flow cytometry, pSTAT6 staining in IL-4 stimulated U-937 cells; conditions: drug 30 min, then IL-4
T2 construct: U-937 cells, histiocytic lymphoma cell line; endogenous in cells; host or cells: U-937 (ATCC CRL-1593.2)
Procedure: as §4, §5, §6, §7, §8, §9, §10, §11, §12, §13, §14, §15, §16, §17, §18, §19, §20

T2 sequence (P23458 whole entry): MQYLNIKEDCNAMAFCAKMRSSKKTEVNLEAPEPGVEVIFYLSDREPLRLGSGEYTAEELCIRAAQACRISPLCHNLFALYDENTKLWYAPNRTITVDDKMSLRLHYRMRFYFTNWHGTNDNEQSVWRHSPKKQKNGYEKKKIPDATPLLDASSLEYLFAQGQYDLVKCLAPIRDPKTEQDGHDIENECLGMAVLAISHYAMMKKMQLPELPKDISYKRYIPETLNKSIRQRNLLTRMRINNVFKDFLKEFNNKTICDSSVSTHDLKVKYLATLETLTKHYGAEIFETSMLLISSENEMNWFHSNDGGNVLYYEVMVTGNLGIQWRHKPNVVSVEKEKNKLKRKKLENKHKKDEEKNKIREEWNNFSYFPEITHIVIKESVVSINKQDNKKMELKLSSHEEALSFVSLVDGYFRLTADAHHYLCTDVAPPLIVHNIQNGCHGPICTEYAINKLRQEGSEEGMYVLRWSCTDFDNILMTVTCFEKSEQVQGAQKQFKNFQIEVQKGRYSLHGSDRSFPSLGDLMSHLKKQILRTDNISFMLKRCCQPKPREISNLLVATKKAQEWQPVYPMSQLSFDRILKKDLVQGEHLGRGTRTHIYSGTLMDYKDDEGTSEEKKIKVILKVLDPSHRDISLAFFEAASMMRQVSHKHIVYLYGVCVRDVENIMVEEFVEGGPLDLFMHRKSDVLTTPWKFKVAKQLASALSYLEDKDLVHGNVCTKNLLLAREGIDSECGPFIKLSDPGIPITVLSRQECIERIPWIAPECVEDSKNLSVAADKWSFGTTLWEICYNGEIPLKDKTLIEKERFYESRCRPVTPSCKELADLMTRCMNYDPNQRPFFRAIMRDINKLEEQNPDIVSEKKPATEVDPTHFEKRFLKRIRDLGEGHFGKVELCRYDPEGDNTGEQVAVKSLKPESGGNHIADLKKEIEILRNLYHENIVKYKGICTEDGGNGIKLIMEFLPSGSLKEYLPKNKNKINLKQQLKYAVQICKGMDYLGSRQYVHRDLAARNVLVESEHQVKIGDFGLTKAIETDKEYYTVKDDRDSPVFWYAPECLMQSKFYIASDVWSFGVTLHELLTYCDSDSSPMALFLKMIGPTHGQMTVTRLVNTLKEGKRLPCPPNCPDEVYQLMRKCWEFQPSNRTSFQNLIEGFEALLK

SMILES: c1ccc(CCSCc2ccc(-c3ccccc3)cc2)cc1 [Compound 135]
- GI50 (SYF/c-Src527F cell line): 18.6 µM
- GI50 [1]: 9.7 µM
- JAK3 pStat5-PE Signal (JAK3): 3.48
- JAK3 pStat5-PE Signal/Background (JAK3): 1.19
- JAK1 pStat6-Alexa647 Signal (JAK1): 17.15
- JAK1 pStat6-Alexa647 Signal/Background (JAK1): 4.10

SMILES: O=C(Cc1ccccc1)NCc1ccc(OCc2ccccc2)cc1 [Compound 163]
- GI50 (SYF/c-Src527F cell line): 275 µM
- GI50 [1]: 62.9 µM
- JAK3 pStat5-PE Signal (JAK3): 3.24
- JAK3 pStat5-PE Signal/Background (JAK3): 1.22
- JAK1 pStat6-Alexa647 Signal (JAK1): 15.35
- JAK1 pStat6-Alexa647 Signal/Background (JAK1): 4.04

SMILES: O=C(Cc1ccc(-c2ccc(OCCN3CCOCC3)cc2)cn1)NCc1ccccc1 [drawing 587]
- GI50 (SYF/c-Src527F cell line): 0.023 µM
- GI50 [1]: 0.026 µM

SMILES: O=C(NCc1ccccc1)Nc1ccc(-c2ccccc2)cn1 [Compound 129]
- GI50 (SYF/c-Src527F cell line): 24.7 µM
- GI50 [1]: 5.4 µM
- JAK3 pStat5-PE Signal (JAK3): 4.15
- JAK3 pStat5-PE Signal/Background (JAK3): 1.42
- JAK1 pStat6-Alexa647 Signal (JAK1): 23.06
- JAK1 pStat6-Alexa647 Signal/Background (JAK1): 5.51

SMILES: c1ccc(CNCCc2ccc(-c3ccccc3)cc2)cc1 [Compound 127]
- GI50 (SYF/c-Src527F cell line): 1.4 µM
- GI50 [1]: 3.3 µM
- JAK3 pStat5-PE Signal (JAK3): 3.38
- JAK3 pStat5-PE Signal/Background (JAK3): 1.15
- JAK1 pStat6-Alexa647 Signal (JAK1): 18.81
- JAK1 pStat6-Alexa647 Signal/Background (JAK1): 4.50

SMILES: O=C(CCc1ccccc1)Cc1ccc(-c2ccccc2)cn1 [Compound 150]
- GI50 (SYF/c-Src527F cell line): 20.8 µM
- GI50 [1]: 5.7 µM
- JAK3 pStat5-PE Signal (JAK3): 3.36
- JAK3 pStat5-PE Signal/Background (JAK3): 1.27
- JAK1 pStat6-Alexa647 Signal (JAK1): 14.48
- JAK1 pStat6-Alexa647 Signal/Background (JAK1): 3.81

SMILES: O=C(Cc1ccccc1)NCc1ccc(-c2ccccc2)cn1 [Compound 140]
- GI50 (SYF/c-Src527F cell line): 11.8 µM
- GI50 [1]: 2.1 µM
- JAK3 pStat5-PE Signal (JAK3): 3.02
- JAK3 pStat5-PE Signal/Background (JAK3): 1.14
- JAK1 pStat6-Alexa647 Signal (JAK1): 13.76
- JAK1 pStat6-Alexa647 Signal/Background (JAK1): 3.62

SMILES: O=C(Cc1ccc(-c2ccc(OCCN3CCOCC3)cc2)cn1)NCc1ccccc1 [Control B]
- JAK3 pStat5-PE Signal (JAK3): 3.42
- JAK3 pStat5-PE Signal/Background (JAK3): 1.17
- JAK1 pStat6-Alexa647 Signal (JAK1): 19.03
- JAK1 pStat6-Alexa647 Signal/Background (JAK1): 4.55

SMILES: O=S(=O)(Cc1ccc(Br)cc1)NCc1ccc(-c2ccccc2)cc1 [Compound 134]
- GI50 (SYF/c-Src527F cell line): 4.9 µM
- GI50 [1]: 5.6 µM
- JAK3 pStat5-PE Signal (JAK3): 3.66
- JAK3 pStat5-PE Signal/Background (JAK3): 1.25
- JAK1 pStat6-Alexa647 Signal (JAK1): 21.47
- JAK1 pStat6-Alexa647 Signal/Background (JAK1): 5.14

SMILES: O=S(=O)(CCc1ccccc1)Cc1ccc(-c2ccccc2)cc1 [Compound 139]
- GI50 (SYF/c-Src527F cell line): 2.2 µM
- GI50 [1]: 2.9 µM
- JAK3 pStat5-PE Signal (JAK3): 4.41
- JAK3 pStat5-PE Signal/Background (JAK3): 1.51
- JAK1 pStat6-Alexa647 Signal (JAK1): 25.08
- JAK1 pStat6-Alexa647 Signal/Background (JAK1): 6.00

SMILES: O=C(Cc1ccc(-c2ccccc2)cc1)NCc1cccc(F)c1 [Control A]
- JAK3 pStat5-PE Signal (JAK3): 4.12
- JAK3 pStat5-PE Signal/Background (JAK3): 1.41
- JAK1 pStat6-Alexa647 Signal (JAK1): 23.79
- JAK1 pStat6-Alexa647 Signal/Background (JAK1): 5.69

SMILES: O=C(NCc1ccccc1)Oc1ccc(-c2ccccc2)cc1 [Compound 130]
- GI50 (SYF/c-Src527F cell line): 7.6 µM
- GI50 [1]: 27.1 µM
- JAK3 pStat5-PE Signal (JAK3): 5.21
- JAK3 pStat5-PE Signal/Background (JAK3): 1.78
- JAK1 pStat6-Alexa647 Signal (JAK1): 31.77
- JAK1 pStat6-Alexa647 Signal/Background (JAK1): 7.60

SMILES: [O-][S+](CCc1ccccc1)Cc1ccc(-c2ccccc2)cc1 (centres unmarked) [Compound 137]
- GI50 (SYF/c-Src527F cell line): 0.97 µM
- GI50 [1]: 1.8 µM
- JAK3 pStat5-PE Signal (JAK3): 3.71
- JAK3 pStat5-PE Signal/Background (JAK3): 1.27
- JAK1 pStat6-Alexa647 Signal (JAK1): 22.03
- JAK1 pStat6-Alexa647 Signal/Background (JAK1): 5.27

SMILES: O=C(Cc1ccc(-c2ccccc2)cc1)NCc1cccc(F)c1 [drawing 586]
- GI50 (SYF/c-Src527F cell line): 0.46 µM
- GI50 [1]: 0.27 µM

SMILES: COc1cc2ncnc(Nc3ccc(O)c(Br)c3)c2cc1OC [WHI-P154]
- JAK3 pStat5-PE Signal (JAK3): 1.63
- JAK3 pStat5-PE Signal/Background (JAK3): 0.56
- JAK1 pStat6-Alexa647 Signal (JAK1): 14.54
- JAK1 pStat6-Alexa647 Signal/Background (JAK1): 3.48

SMILES: COc1cc2ncnc(Nc3ccc(O)cc3)c2cc1OC [WHI-P131]
- JAK3 pStat5-PE Signal (JAK3): 3.19
- JAK3 pStat5-PE Signal/Background (JAK3): 1.09
- JAK1 pStat6-Alexa647 Signal (JAK1): 33.80
- JAK1 pStat6-Alexa647 Signal/Background (JAK1): 8.09
